The values that follow come from PubChem BioAssay AID330 (DTP/NCI, 2004).

The subject of the experiment is P388 leukemia ip, CD2F1 mice, survival T/C. The experiment can be described thus: NCI In Vivo Anticancer Drug Screen. Data for tumor model P388 Leukemia (intraperitoneal) in CD2F1 (CDF1) mice. Particulars: endpoint: median survival time, higher = longer survival. The gist of the method:
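Mice carrying the transplanted tumor received test compound or vehicle. Survival was recorded in each group, and the value is the treated-group measurement divided by that of the vehicle-treated control group.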

The mark [1] stands for this setting: dose: 50.0 mg/kg/injection, schedule: Q01DX009 (ip), vehicle: Klucel (hydroxypropylcellulose) (HPC).
[2] abbreviates: dose: 100.0 mg/kg/injection, schedule: Q01DX009 (ip), vehicle: Klucel (hydroxypropylcellulose) (HPC).
The mark [3] stands for this setting: dose: 50.0 mg/kg/injection, schedule: Q01DX009 (ip), vehicle: saline with Tween-80.
[4] abbreviates: dose: 100.0 mg/kg/injection, schedule: Q01DX009 (ip), vehicle: saline with Tween-80.
[5] abbreviates: dose: 200.0 mg/kg/injection, schedule: Q01DX009 (ip), vehicle: saline with Tween-80.
The mark [6] stands for this setting: dose: 100.0 mg/kg/injection, schedule: Q01DX001 (ip), vehicle: Klucel (hydroxypropylcellulose) (HPC).
The mark [7] stands for this setting: dose: 200.0 mg/kg/injection, schedule: Q01DX001 (ip), vehicle: Klucel (hydroxypropylcellulose) (HPC).
Where [8] appears, read: dose: 400.0 mg/kg/injection, schedule: Q01DX001 (ip), vehicle: Klucel (hydroxypropylcellulose) (HPC).
The mark [9] stands for this setting: dose: 50.0 mg/kg/injection, schedule: Q01DX009 (ip), vehicle: saline.
Setting [10] is: dose: 100.0 mg/kg/injection, schedule: Q01DX009 (ip), vehicle: saline.
[11] abbreviates: dose: 60.0 mg/kg/injection, schedule: Q01DX005 (ip), vehicle: saline with Tween-80.
Setting [12] is: dose: 120.0 mg/kg/injection, schedule: Q01DX005 (ip), vehicle: saline with Tween-80.
Setting [13] is: dose: 240.0 mg/kg/injection, schedule: Q01DX005 (ip), vehicle: saline with Tween-80.
Where [14] appears, read: dose: 50.0 mg/kg/injection, schedule: Q01DX005 (ip), vehicle: Klucel (hydroxypropylcellulose) (HPC).
[15] abbreviates: dose: 100.0 mg/kg/injection, schedule: Q01DX005 (ip), vehicle: Klucel (hydroxypropylcellulose) (HPC).
Setting [16] is: dose: 50.0 mg/kg/injection, schedule: Q01DX005 (ip), vehicle: saline.
Setting [17] is: dose: 100.0 mg/kg/injection, schedule: Q01DX005 (ip), vehicle: saline.

Where “and” joins values, the source holds several entries; their conditions need not be identical. Identical values can stand only once. Toxic doses and inconclusive results are not listed. Square brackets hold non-standard residues; d marks the D form. Peptide text beside a SMILES is read from it. ξ: configuration not given here. ξPhe(4-N(CH2CH2Cl)2) = NC(Cc1ccc(N(CCCl)CCCl)cc1)C(=O)O

With `CCOC(=O)CNCc1ccc(Cl)c(Cl)c1`, the T/C by setting is: (dose: 6.25 mg/kg/injection, schedule: Q01DX009 (ip), vehicle: Klucel (hydroxypropylcellulose) (HPC)) 100 % of control; (dose: 12.5 mg/kg/injection, schedule: Q01DX009 (ip), vehicle: Klucel (hydroxypropylcellulose) (HPC)) 103 % of control and 97 % of control; (dose: 25.0 mg/kg/injection, schedule: Q01DX009 (ip), vehicle: Klucel (hydroxypropylcellulose) (HPC)) 100 % of control; under setting [1], 108 % of control and 94 % of control; under setting [2], 104 % of control.

In the case of `CCn1c2ccccc2c2cc(N=Cc3cccc([N+](=O)[O-])c3)ccc21`, the T/C is 97 % of control under setting [3], 98 % of control under setting [4] and 88 % of control under setting [5].

Regarding `COC(=O)C1CCC(c2ccccc2)(c2ccccc2)C1O.COC(=O)C1CCC(c2ccccc2)(c2ccccc2)C1O.[Cu]` (stereo not given), the T/C under setting [6] is 100 % of control, the T/C under setting [7] was 100 % of control and the T/C under setting [8] was 100 % of control.

Consider `CC(C)CN1CCOCC1`, for which the T/C runs as follows: (dose: 25.0 mg/kg/injection, schedule: Q01DX009 (ip), vehicle: saline) 100 % of control; under setting [9], 95 % of control; under setting [10], 104 % of control.

In the case of `CSc1cccc(NC(=O)Nc2ccccc2C(N)=O)c1`, the T/C was 94 % of control under setting [1]; 103 % of control under setting [2]; 94 % of control (dose: 200.0 mg/kg/injection, schedule: Q01DX009 (ip), vehicle: Klucel (hydroxypropylcellulose) (HPC)).

For the molecule `Cc1ccc2c(c1)-c1nc3nnnn3nc1C(C)(C)O2`, the T/C is 92 % of control under setting [11], 95 % of control under setting [12] and 98 % of control under setting [13].

Turning to `S=C(S)N(Cc1ccccc1)Cc1ccccc1` (tested in a mixture with another compound), the T/C runs as follows: under setting [11], 105 % of control; under setting [12], 105 % of control; under setting [13], 101 % of control.

`COP(=S)(OC)SCc1cc(=O)n2c(C)cccc2n1`: the T/C reads like this: (dose: 6.25 mg/kg/injection, schedule: Q01DX005 (ip), vehicle: distilled water + alcohol) 102 % of control; (dose: 12.5 mg/kg/injection, schedule: Q01DX005 (ip), vehicle: distilled water + alcohol) 100 % of control; (dose: 25.0 mg/kg/injection, schedule: Q01DX005 (ip), vehicle: distilled water + alcohol) 102 % of control.

Consider `CN(C)c1ccc(-c2nc3ccccc3s2)c(Cl)c1`, for which the T/C is 102 % of control under setting [3], 103 % of control under setting [4] and 109 % of control under setting [5].

As to `Cc1cc(OC(=O)c2ccccc2OS(N)(=O)=O)ccc1Cl`, the T/C is 98 % of control (dose: 60.0 mg/kg/injection, schedule: Q01DX005 (ip), vehicle: Klucel (hydroxypropylcellulose) (HPC)); 97 % of control (dose: 120.0 mg/kg/injection, schedule: Q01DX005 (ip), vehicle: Klucel (hydroxypropylcellulose) (HPC)); 94 % of control (dose: 240.0 mg/kg/injection, schedule: Q01DX005 (ip), vehicle: Klucel (hydroxypropylcellulose) (HPC)).

For `CS(=O)(=O)OCCN(CCOS(C)(=O)=O)c1ccc([N+](=O)[O-])cc1[N+](=O)[O-]`, the T/C runs as follows: under setting [6], 88 % of control; under setting [7], 100 % of control; under setting [8], 103 % of control.

In the case of `CSc1nccn[n+]1C`, the T/C by setting is: (dose: 100.0 mg/kg/injection, schedule: Q01DX001 (ip), vehicle: saline) 112 % of control; (dose: 200.0 mg/kg/injection, schedule: Q01DX001 (ip), vehicle: saline) 111 % of control.

On to `CC(=O)OCC1CC2COCC2CC1COC(C)=O` (stereo not given), for which the T/C is, setting by setting: under setting [11], 100 % of control; under setting [12], 108 % of control; under setting [13], 102 % of control.

`CC(C)CCC[C@@H](C)[C@H]1CC[C@H]2[C@@H]3CC[C@H]4C[C@@H](N)CC[C@]4(C)[C@H]3CC[C@]12C`: the T/C runs as follows: (dose: 6.25 mg/kg/injection, schedule: Q01DX005 (ip), vehicle: Klucel (hydroxypropylcellulose) (HPC)) 98 % of control; (dose: 12.5 mg/kg/injection, schedule: Q01DX005 (ip), vehicle: Klucel (hydroxypropylcellulose) (HPC)) 97 % of control; (dose: 25.0 mg/kg/injection, schedule: Q01DX005 (ip), vehicle: Klucel (hydroxypropylcellulose) (HPC)) 95 % of control; under setting [14], 112 % of control; under setting [15], 109 % of control.

Consider `CC(=O)Oc1ccc(/C=N\N(C)C)cc1`, for which the T/C was 102 % of control under setting [9] and 95 % of control under setting [10].

For the molecule `CCN(CC)CCOc1ccc(/C=C(\C)C(C)=O)cc1`, the T/C by setting is: under setting [16], 94 % of control; under setting [17], 90 % of control.

As to `CCN(CC)C(C)(C)C(=O)/C=C/c1ccc(OC)cc1`, the T/C under setting [11] was 115 % of control, the T/C under setting [12] was 107 % of control and the T/C under setting [13] was 100 % of control.

Take `COC(=O)C1C(COS(C)(=O)=O)ON2CCC(OC)(OC)C12` (stereo not given): the T/C by setting is: under setting [16], 95 % of control; under setting [17], 98 % of control; (dose: 200.0 mg/kg/injection, schedule: Q01DX005 (ip), vehicle: saline) 95 % of control.

As to `NCC(=O)O`, the T/C is 99 % of control (dose: 3.75 mg/kg/injection, schedule: Q01DX005 (ip), vehicle: saline); 100 % of control (dose: 7.5 mg/kg/injection, schedule: Q01DX005 (ip), vehicle: saline); 99 % of control and 94 % of control (dose: 15.0 mg/kg/injection, schedule: Q01DX005 (ip), vehicle: saline); 94 % of control under setting [9]; 105 % of control under setting [10]; 110 % of control (dose: 200.0 mg/kg/injection, schedule: Q01DX009 (ip), vehicle: saline).

As to `OCCSCc1ccc(F)cc1`, the T/C is 101 % of control under setting [14]; 97 % of control under setting [15]; 104 % of control (dose: 200.0 mg/kg/injection, schedule: Q01DX005 (ip), vehicle: Klucel (hydroxypropylcellulose) (HPC)).

For the molecule `O=c1c2ccccc2ncn1S(=O)(=O)c1ccc(N(CCCl)CCCl)cc1`, the T/C reads like this: (dose: 100.0 mg/kg/injection, schedule: Q04DX002 (ip), vehicle: saline with Tween-80) 110 % of control; (dose: 200.0 mg/kg/injection, schedule: Q04DX002 (ip), vehicle: saline with Tween-80) 118 % of control.

In the case of `C/C(=C\C(=O)c1ccccc1)Nc1ccc(Cl)cc1`, the T/C by setting is: (dose: 25.0 mg/kg/injection, schedule: Q01DX009 (ip), vehicle: saline with Tween-80) 108 % of control; under setting [3], 92 % of control; under setting [4], 89 % of control; under setting [5], 99 % of control.

For `O=C1CCCC(CCc2ccccc2)O1` (stereo not given), the T/C is 100 % of control (dose: 100.0 mg/kg/injection, schedule: Q01DX001 (ip), vehicle: saline with Tween-80); 101 % of control (dose: 200.0 mg/kg/injection, schedule: Q01DX001 (ip), vehicle: saline with Tween-80); 100 % of control (dose: 400.0 mg/kg/injection, schedule: Q01DX001 (ip), vehicle: saline with Tween-80).

For `CSC(SC)c1cc(-c2c(Cl)cccc2Cl)no1`, the T/C under setting [11] is 102 % of control, the T/C under setting [12] was 103 % of control and the T/C under setting [13] was 103 % of control.

For the molecule `O=c1[nH]cc(-c2ccccc2)c(=O)[nH]1`, the T/C under setting [6] was 100 % of control, the T/C under setting [7] was 98 % of control and the T/C under setting [8] was 96 % of control.

`O=C(O)P(=O)(O)O`: the T/C was 95 % of control (dose: 50.0 mg/kg/injection, schedule: Q01DX009 (ip), vehicle: water); 103 % of control (dose: 100.0 mg/kg/injection, schedule: Q01DX009 (ip), vehicle: water); 100 % of control (dose: 200.0 mg/kg/injection, schedule: Q01DX009 (ip), vehicle: water).

As for `CCOC(=O)C(Cc1ccc(N(CCCl)CCCl)cc1)NC(=O)C(Cc1ccccc1)NC(=O)C(NC(=O)CNC(=O)C1CCCN1)C(C)C` (stereo not given) (H-PGVF[ξPhe(4-N(CH2CH2Cl)2)]-OEt; configuration not given here), the T/C by setting is: (dose: 10.0 mg/kg/injection, schedule: Q04DX003 (ip), vehicle: water) 150 % of control; (dose: 20.0 mg/kg/injection, schedule: Q04DX003 (ip), vehicle: water) 173 % of control; (dose: 40.0 mg/kg/injection, schedule: Q04DX003 (ip), vehicle: water) 193 % of control.
